From patent publication US20050282743A1, “Molecular interactions in cells” (Arbor Vita Corporation, priority 2001, published 2005)
Ends that are not written are not given here. Peptide text beside a SMILES is read from it. * marks the point of attachment. Biotin = O=C1N[C@H]2[C@H](CS[C@H]2CCCCC(=O)*)N1

Experiments:
Test in all cases: G' assay (10 uM PL peptide), results of TABLE 7 and TABLE 12
Assay type in all cases: binding
[1] = target: T1, PDZ protein (GST-PDZ fusion) (Homo sapiens, UniProt Q9HD26); settings: PDZ PIST, PDZ Domain 1
T1 construct: made in house; host or cells: E. coli (DH5alpha, BL21 or JM109)
How it was run: (§1)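 Biotinylated PL peptides at 10 uM (vs 20 uM in G^0 assay) bound to GST-PDZ fusions; PDZ protein at 5 ug/ml unless another concentration listed. Bound peptide read as A450 nm, classified 0–5 (0 = A450 0; 5 = A450 >4 repeated).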

[2] = target: T2, PDZ protein (GST-PDZ fusion) (Homo sapiens, UniProt Q07157); settings: PDZ ZO-1, PDZ Domain 1
T2 construct: made in house; host or cells: E. coli (DH5alpha, BL21 or JM109)
How it was run: as §1

[3] = target: T3, PDZ protein (GST-PDZ fusion) (Homo sapiens, UniProt Q9Y3R0); settings: PDZ GRIP1, PDZ Domain 3
T3 construct: made in house; host or cells: E. coli (DH5alpha, BL21 or JM109)
T3 sequence (Q9Y3R0 1-1128): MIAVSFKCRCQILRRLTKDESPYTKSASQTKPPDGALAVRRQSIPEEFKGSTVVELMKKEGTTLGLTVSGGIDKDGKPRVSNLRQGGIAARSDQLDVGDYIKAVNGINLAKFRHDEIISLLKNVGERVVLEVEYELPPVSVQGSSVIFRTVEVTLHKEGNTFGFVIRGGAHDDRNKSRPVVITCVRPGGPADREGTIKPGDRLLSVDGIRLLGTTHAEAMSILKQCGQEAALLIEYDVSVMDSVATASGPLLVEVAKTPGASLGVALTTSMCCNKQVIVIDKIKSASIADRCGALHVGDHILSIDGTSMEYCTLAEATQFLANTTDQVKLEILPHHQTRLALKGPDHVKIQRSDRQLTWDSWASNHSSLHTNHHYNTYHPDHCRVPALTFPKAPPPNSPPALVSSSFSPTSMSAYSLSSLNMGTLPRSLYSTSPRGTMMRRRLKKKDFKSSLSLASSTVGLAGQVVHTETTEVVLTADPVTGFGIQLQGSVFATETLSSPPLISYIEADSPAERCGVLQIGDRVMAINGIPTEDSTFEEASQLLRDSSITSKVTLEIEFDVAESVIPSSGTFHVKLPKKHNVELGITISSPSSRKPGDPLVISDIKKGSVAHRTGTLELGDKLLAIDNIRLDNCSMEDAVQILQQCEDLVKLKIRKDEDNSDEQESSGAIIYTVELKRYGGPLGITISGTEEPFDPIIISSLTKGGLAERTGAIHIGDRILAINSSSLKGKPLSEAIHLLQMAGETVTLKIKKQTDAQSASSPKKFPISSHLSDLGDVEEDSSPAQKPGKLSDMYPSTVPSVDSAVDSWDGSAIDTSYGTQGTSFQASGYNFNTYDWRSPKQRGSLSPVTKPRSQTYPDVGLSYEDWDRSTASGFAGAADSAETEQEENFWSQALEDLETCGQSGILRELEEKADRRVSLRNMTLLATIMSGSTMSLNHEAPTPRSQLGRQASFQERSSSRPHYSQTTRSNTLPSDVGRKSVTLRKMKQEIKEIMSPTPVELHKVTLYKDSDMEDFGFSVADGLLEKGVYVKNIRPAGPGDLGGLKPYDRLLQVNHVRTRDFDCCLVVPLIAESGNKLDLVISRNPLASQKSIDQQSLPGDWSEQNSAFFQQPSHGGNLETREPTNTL
How it was run: as §1

[4] = target: T4, PDZ protein (GST-PDZ fusion) (Homo sapiens, UniProt Q9NY99); settings: PDZ Syntrophin gamma-2, PDZ Domain 1
T4 construct: made in house; host or cells: E. coli (DH5alpha, BL21 or JM109)
T4 sequence (Q9NY99 1-539): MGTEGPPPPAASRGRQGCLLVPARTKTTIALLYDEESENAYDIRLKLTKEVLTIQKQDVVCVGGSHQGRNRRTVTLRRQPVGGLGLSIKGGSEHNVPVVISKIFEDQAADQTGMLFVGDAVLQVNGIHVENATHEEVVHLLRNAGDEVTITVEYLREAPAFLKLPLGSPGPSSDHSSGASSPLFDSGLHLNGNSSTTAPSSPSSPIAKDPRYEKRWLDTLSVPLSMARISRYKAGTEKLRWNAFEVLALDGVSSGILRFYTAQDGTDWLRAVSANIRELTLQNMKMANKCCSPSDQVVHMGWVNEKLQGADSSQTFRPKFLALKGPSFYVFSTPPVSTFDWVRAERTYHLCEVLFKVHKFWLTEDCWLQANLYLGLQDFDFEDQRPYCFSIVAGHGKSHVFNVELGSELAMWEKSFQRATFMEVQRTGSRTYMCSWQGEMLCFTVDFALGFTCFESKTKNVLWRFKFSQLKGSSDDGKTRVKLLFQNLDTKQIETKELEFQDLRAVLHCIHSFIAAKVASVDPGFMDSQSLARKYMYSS
How it was run: as §1

[5] = target: T5, PDZ protein (GST-PDZ fusion) (Homo sapiens, UniProt O15085); settings: PDZ KIAA0380, PDZ Domain 1
T5 construct: made in house; host or cells: E. coli (DH5alpha, BL21 or JM109)
How it was run: as §1

T5 sequence (O15085 whole entry, the tested form may be a part): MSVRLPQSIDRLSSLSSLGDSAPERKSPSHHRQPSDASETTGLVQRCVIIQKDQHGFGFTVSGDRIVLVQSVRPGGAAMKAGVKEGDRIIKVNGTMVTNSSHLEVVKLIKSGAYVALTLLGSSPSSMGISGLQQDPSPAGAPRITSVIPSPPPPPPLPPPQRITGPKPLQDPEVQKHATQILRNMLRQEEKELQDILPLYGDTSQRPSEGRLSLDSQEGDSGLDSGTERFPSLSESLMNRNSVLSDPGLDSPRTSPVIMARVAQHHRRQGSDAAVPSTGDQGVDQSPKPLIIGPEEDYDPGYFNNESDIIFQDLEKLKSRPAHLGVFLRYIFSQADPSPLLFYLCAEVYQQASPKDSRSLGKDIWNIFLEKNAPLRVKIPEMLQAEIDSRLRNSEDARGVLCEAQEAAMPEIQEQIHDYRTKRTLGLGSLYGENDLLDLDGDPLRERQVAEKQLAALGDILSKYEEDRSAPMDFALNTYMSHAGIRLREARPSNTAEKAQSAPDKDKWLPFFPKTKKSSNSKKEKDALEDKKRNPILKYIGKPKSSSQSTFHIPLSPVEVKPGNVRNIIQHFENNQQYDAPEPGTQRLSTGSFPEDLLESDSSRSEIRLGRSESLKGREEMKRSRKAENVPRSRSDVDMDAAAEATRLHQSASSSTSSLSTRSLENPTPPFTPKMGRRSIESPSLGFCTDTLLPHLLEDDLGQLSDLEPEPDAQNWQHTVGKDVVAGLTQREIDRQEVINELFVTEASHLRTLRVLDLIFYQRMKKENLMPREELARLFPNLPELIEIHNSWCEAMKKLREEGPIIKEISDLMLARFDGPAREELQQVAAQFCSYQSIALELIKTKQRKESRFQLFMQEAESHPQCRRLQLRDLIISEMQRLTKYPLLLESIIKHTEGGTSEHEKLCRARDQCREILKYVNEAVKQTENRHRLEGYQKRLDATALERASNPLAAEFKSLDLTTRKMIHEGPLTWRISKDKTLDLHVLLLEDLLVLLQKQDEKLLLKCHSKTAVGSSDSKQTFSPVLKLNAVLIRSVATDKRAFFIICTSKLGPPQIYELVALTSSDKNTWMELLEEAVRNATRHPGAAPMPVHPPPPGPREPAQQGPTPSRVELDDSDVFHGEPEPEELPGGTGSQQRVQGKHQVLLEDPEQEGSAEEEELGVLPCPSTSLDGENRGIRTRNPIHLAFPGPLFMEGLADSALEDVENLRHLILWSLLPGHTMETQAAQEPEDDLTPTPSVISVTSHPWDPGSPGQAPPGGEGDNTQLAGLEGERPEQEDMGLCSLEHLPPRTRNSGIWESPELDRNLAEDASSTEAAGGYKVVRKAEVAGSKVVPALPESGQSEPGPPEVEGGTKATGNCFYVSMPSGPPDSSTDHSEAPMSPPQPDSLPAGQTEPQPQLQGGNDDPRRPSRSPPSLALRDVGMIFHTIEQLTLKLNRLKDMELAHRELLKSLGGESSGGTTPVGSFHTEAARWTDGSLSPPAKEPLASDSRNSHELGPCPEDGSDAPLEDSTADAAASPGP
T2 sequence (Q07157 whole entry, the tested form may be a part): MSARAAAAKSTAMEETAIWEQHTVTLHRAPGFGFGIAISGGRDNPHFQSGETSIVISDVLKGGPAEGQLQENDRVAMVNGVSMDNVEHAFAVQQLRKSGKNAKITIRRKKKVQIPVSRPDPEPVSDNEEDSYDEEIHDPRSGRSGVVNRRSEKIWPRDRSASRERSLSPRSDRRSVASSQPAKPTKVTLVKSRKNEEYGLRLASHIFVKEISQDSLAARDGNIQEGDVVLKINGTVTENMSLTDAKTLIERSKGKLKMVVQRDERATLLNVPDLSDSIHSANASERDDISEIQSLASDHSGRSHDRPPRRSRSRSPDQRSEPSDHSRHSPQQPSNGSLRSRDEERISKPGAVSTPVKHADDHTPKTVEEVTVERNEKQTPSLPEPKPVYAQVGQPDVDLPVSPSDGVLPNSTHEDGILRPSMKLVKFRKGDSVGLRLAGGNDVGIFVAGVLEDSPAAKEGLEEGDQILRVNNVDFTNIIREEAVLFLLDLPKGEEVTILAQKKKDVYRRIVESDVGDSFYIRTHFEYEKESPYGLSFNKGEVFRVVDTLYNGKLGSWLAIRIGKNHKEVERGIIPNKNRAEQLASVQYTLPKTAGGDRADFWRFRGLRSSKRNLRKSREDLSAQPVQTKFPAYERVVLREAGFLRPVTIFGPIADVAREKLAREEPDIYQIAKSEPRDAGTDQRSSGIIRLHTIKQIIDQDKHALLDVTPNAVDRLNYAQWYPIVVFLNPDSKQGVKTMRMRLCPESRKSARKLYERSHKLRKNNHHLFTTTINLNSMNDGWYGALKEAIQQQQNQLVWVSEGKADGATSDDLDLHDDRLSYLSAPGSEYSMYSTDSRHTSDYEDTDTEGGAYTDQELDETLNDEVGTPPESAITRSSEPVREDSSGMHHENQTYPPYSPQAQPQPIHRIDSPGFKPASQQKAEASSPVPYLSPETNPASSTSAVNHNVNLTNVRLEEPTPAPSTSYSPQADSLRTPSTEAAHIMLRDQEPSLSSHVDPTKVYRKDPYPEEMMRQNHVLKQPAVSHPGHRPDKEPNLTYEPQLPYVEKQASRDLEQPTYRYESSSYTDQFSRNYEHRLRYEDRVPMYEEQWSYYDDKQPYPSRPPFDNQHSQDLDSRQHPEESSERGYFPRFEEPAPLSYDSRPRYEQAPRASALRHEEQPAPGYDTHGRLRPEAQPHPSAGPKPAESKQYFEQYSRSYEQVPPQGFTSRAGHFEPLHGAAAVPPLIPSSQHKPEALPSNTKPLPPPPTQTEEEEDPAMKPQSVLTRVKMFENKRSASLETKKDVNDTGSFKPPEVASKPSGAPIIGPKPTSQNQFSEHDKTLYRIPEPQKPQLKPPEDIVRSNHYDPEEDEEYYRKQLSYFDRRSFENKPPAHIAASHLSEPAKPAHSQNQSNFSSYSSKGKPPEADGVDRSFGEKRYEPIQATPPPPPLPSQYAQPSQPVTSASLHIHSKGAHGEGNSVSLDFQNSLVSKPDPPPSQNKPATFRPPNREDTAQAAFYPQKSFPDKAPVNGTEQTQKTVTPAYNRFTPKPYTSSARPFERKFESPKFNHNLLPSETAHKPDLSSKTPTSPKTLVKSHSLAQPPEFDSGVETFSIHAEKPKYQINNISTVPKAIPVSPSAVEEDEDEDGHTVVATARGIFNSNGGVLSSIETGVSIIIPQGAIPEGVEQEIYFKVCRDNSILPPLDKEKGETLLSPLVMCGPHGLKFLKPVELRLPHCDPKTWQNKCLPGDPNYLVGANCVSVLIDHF

| Compound | Classification [1] | Classification [4] | Classification [5] | further results |
| --- | --- | --- | --- | --- |
| CC[C@H](C)[C@H](NC(=O)[C@H](CC(=O)O)NC(=O)[C@H](CCC(=O)O)NC(=O)[C@H](CCCNC(=N)N)NC(=O)[C@@H](NC(=O)CCCC[C@@H]1SC[C@@H]2NC(=O)N[C@@H]21)[C@@H](C)O)C(=O)N[C@@H](Cc1ccc(O)cc1)C(=O)N[C@H](C(=O)N[C@@H](CC(N)=O)C(=O)N[C@@H](Cc1ccc(O)cc1)C(=O)N1CCC[C@H]1C(=O)N[C@H](C(=O)N[C@@H](Cc1ccccc1)C(=O)N[C@@H](CO)C(=O)N[C@@H](CCCNC(=N)N)C(=O)N[C@@H](CCCNC(=N)N)C(=O)N1CCC[C@H]1C(=O)N[C@@H](CCCCN)C(=O)N[C@H](C(=O)N[C@@H](CCCNC(=N)N)C(=O)N[C@H](C(=O)O)C(C)C)[C@@H](C)O)[C@@H](C)O)C(C)C [DNAM-1] (Biotin-TREDIYVNYPTFSRRPKTRV-OH; C-terminus assumed) | 4 (A450 nm 3-4) | – | – | Classification [2]: 2 (A450 nm 1-2) |
| CC[C@H](C)[C@H](NC(=O)[C@H](CCCCN)NC(=O)[C@@H](NC(=O)[C@H](CO)NC(=O)[C@@H]1CCCN1C(=O)[C@H](Cc1ccccc1)NC(=O)[C@@H](NC(=O)[C@@H](NC(=O)[C@H](CCCNC(=N)N)NC(=O)[C@H](CCC(=O)O)NC(=O)[C@H](CC(C)C)NC(=O)[C@H](CC(C)C)NC(=O)[C@H](CC(C)C)NC(=O)[C@@H](NC(=O)CNC(=O)[C@@H](NC(=O)CCCC[C@@H]1SC[C@@H]2NC(=O)N[C@@H]21)C(C)C)[C@@H](C)O)C(C)C)[C@@H](C)CC)C(C)C)C(=O)N[C@@H](C)C(=O)N[C@H](C(=O)N[C@@H](CC(C)C)C(=O)N[C@H](C(=O)O)C(C)C)[C@@H](C)O [Adenovirus E4 Type9] | – | – | – | Classification ([1]; PL peptide 10 uM): 1 (A450 nm 0-1); Classification ([2]; PL peptide 10 uM): 2 (A450 nm 1-2) |
| CC[C@H](C)[C@H](NC(=O)[C@H](CCC(N)=O)NC(=O)[C@@H](NC(=O)[C@H](Cc1c[nH]cn1)NC(=O)[C@H](CCC(N)=O)NC(=O)[C@H](CC(=O)O)NC(=O)[C@H](CCC(=O)O)NC(=O)[C@H](CC(=O)O)NC(=O)[C@H](Cc1ccccc1)NC(=O)[C@@H]1CCCN1C(=O)[C@H](CCC(=O)O)NC(=O)[C@H](CC(N)=O)NC(=O)[C@H](CCC(=O)O)NC(=O)[C@@H]1CCCN1C(=O)[C@H](CC(=O)O)NC(=O)[C@H](CO)NC(=O)[C@H](CC(=O)O)NC(=O)CCCC[C@@H]1SC[C@@H]2NC(=O)N[C@@H]21)[C@@H](C)O)C(=O)N[C@H](C(=O)N[C@@H](CCCCN)C(=O)N[C@H](C(=O)O)C(C)C)[C@@H](C)O [PTEN] | 1 (A450 nm 0-1) | – | – | Classification [3]: 1 (A450 nm 0-1) |
| PPATPSPRLALPAHHNATRL (Biotin-PPATPSPRLALPAHHNATRL) [Na+/Pi cotransporter 2] | 1 (A450 nm 0-1) | 1 (A450 nm 0-1) | – | – |
| CC(C)C[C@H](NC(=O)[C@H](C)NC(=O)[C@@H](NC(=O)[C@H](CCC(=O)O)NC(=O)[C@H](CCCNC(=N)N)NC(=O)[C@H](CCCNC(=N)N)NC(=O)CNC(=O)[C@H](CCC(N)=O)NC(=O)[C@H](CC(C)C)NC(=O)[C@H](CCCNC(=N)N)NC(=O)CNC(=O)CNC(=O)[C@H](CCCNC(=N)N)NC(=O)[C@H](C)NC(=O)[C@H](CO)NC(=O)[C@H](CCCNC(=N)N)NC(=O)CNC(=O)CNC(=O)[C@H](C)NC(=O)[C@H](C)NC(=O)CCCC[C@@H]1SC[C@@H]2NC(=O)N[C@@H]21)[C@@H](C)O)C(=O)O [HPV E6 33 (modified)] (Biotin-AAGGRSARGGRLQGRRETAL-OH; C-terminus assumed) | – | 1 (A450 nm 0-1) | 1 (A450 nm 0-1) | – |
| CC(C)C[C@H](NC(=O)[C@H](C)NC(=O)[C@H](CO)NC(=O)CNC(=O)[C@@H](NC(=O)CCCC[C@@H]1SC[C@@H]2NC(=O)N[C@@H]21)[C@@H](C)O)C(=O)N[C@@H](CCC(N)=O)C(=O)N[C@@H](C)C(=O)N[C@@H](Cc1c[nH]c2ccccc12)C(=O)N[C@@H](CCCNC(=N)N)C(=O)N[C@@H](Cc1c[nH]cn1)C(=O)N[C@H](C(=O)N[C@@H](CO)C(=O)N[C@@H](CCCNC(=N)N)C(=O)N[C@@H](CCC(N)=O)C(=O)N[C@@H](C)C(=O)N[C@H](C(=O)N[C@@H](CCC(=O)O)C(=O)N[C@@H](CO)C(=O)N[C@H](C(=O)N[C@H](C(=O)O)C(C)C)[C@@H](C)O)[C@@H](C)O)[C@@H](C)O [HPV E6 #66 (modified)] (Biotin-TGSALQAWRHTSRQATESTV-OH; C-terminus assumed) | – | 1 (A450 nm 0-1) | – | – |
| CC(C)C[C@H](NC(=O)[C@H](CC(=O)O)NC(=O)[C@H](CO)NC(=O)[C@H](CCC(=O)O)NC(=O)CNC(=O)[C@H](Cc1ccc(O)cc1)NC(=O)[C@H](CC(C)C)NC(=O)[C@H](C)NC(=O)[C@H](CO)NC(=O)[C@H](CO)NC(=O)[C@H](Cc1ccccc1)NC(=O)[C@H](C)NC(=O)[C@H](C)NC(=O)[C@H](Cc1ccc(O)cc1)NC(=O)[C@H](CC(=O)O)NC(=O)[C@H](CC(C)C)NC(=O)[C@H](C)NC(=O)CNC(=O)[C@@H]1CCCN1C(=O)[C@@H](NC(=O)CCCC[C@@H]1SC[C@@H]2NC(=O)N[C@@H]21)C(C)C)C(=O)O [a-actinin 2] (Biotin-VPGALDYAAFSSALYGESDL-OH; C-terminus assumed) | – | 1 (A450 nm 0-1) | 1 (A450 nm 0-1) | – |
| TQGFPGPATWRRISSLESEV | – | 2 (A450 nm 1-2) | 1 (A450 nm 0-1) | – |
| CC[C@H](C)[C@H](NC(=O)[C@H](CCC(N)=O)NC(=O)CCCC[C@@H]1SC[C@@H]2NC(=O)N[C@@H]21)C(=O)N[C@@H](CO)C(=O)N1CCC[C@H]1C(=O)NCC(=O)NCC(=O)N[C@@H](CC(C)C)C(=O)N[C@@H](CCC(=O)O)C(=O)N1CCC[C@H]1C(=O)N1CCC[C@H]1C(=O)N[C@@H](CO)C(=O)N[C@@H](CCC(=O)O)C(=O)N[C@@H](CCCCN)C(=O)N[C@@H](Cc1c[nH]cn1)C(=O)N[C@@H](Cc1ccccc1)C(=O)N[C@@H](CCCNC(=N)N)C(=O)N[C@@H](CCC(=O)O)C(=O)N[C@H](C(=O)N[C@@H](CCC(=O)O)C(=O)N[C@H](C(=O)O)C(C)C)[C@@H](C)O [Tax] | – | 1 (A450 nm 0-1) | – | – |
| CC(C)C[C@H](NC(=O)[C@H](C)NC(=O)[C@@H](NC(=O)[C@@H](NC(=O)[C@H](Cc1c[nH]cn1)NC(=O)[C@H](CC(C)C)NC(=O)CNC(=O)[C@H](CCC(N)=O)NC(=O)CNC(=O)CNC(=O)[C@H](C)NC(=O)[C@H](C)NC(=O)[C@H](CCCNC(=N)N)NC(=O)[C@H](C)NC(=O)[C@H](CO)NC(=O)[C@H](CC(=O)O)NC(=O)[C@H](CC(=O)O)NC(=O)[C@H](Cc1c[nH]c2ccccc12)NC(=O)[C@H](C)NC(=O)CCCC[C@@H]1SC[C@@H]2NC(=O)N[C@@H]21)C(C)C)[C@@H](C)O)C(=O)O [LPAP] (Biotin-AWDDSARAAGGQGLHVTAL-OH; C-terminus assumed) | 1 (A450 nm 0-1) | – | – | Classification [3]: 1 (A450 nm 0-1) |
